Test results taken from ChEMBL document CHEMBL5705890, “Antitumor activity of an allosteric inhibitor of centromere-associated protein-E” (Proc Natl Acad Sci U S A, 2010).
Blank lines part the entries; values can stand above or below the compound they belong to. The source made the active and inactive calls. The calls are words filed in the database; no cut-off is given here.

How the values were obtained:
[1] = target: Centromere-associated protein E (Homo sapiens) (UniProt Q02224); assay: Binding affinity to C-terminal 6-his-tagged CENP-E (2 to 340 residues)(unknown origin) expressed in Escherichia coli BL21(DE3) photo-exposed for 30 mins by LC-MS analysis
[2] = target: Centromere-associated protein E (Homo sapiens) (UniProt Q02224); assay: Competitive-like binding affinity to C-terminal 6-his-tagged CENP-E (2 to 340 residues)(unknown origin) expressed in Escherichia coli BL21(DE3) in presence of ATP
[3] = system: CC(C)Oc1ccc(C(=O)N[C@H](CNC(=O)CN(C)C)Cc2ccc(-c3cn4cccc([C@H](C)O)c4n3)cc2)cc1Cl; conditions: Canis lupus familiaris
Description: Binding affinity to wild-type dog CENP-E assessed as catalytic constant

[4] = system: CC(C)Oc1ccc(C(=O)N[C@H](CNC(=O)CN(C)C)Cc2ccc(-c3cn4cccc([C@H](C)O)c4n3)cc2)cc1Cl; conditions: Canis lupus familiaris; remark: listed apart in the source
Description: Binding affinity to wild-type dog CENP-E assessed as Km in presence of ATP

[5] = system: CC(C)Oc1ccc(C(=O)N[C@H](CNC(=O)CN(C)C)Cc2ccc(-c3cn4cccc([C@H](C)O)c4n3)cc2)cc1Cl; conditions: Canis lupus familiaris; remark: listed apart in the source
Description: Binding affinity to wild-type dog CENP-E assessed as Km in presence of microtubule

[6] = system: CC(C)Oc1ccc(C(=O)N[C@H](CNC(=O)CN(C)C)Cc2ccc(-c3cn4cccc([C@H](C)O)c4n3)cc2)cc1Cl; conditions: Mus musculus
Description: Binding affinity to wild-type mouse CENP-E assessed as Km in presence of microtubule

[7] = system: CC(C)Oc1ccc(C(=O)N[C@H](CNC(=O)CN(C)C)Cc2ccc(-c3cn4cccc([C@H](C)O)c4n3)cc2)cc1Cl; conditions: Mus musculus; remark: listed apart in the source
Description: Binding affinity to wild-type mouse CENP-E assessed as catalytic constant

[8] = system: CC(C)Oc1ccc(C(=O)N[C@H](CNC(=O)CN(C)C)Cc2ccc(-c3cn4cccc([C@H](C)O)c4n3)cc2)cc1Cl; conditions: Mus musculus; remark: listed apart in the source
Description: Binding affinity to wild-type mouse CENP-E assessed as Km in presence of ATP

[9] = target: Centromere protein E (Canis lupus familiaris) (UniProt A0A8P0P634); assay: Binding affinity to wild-type dog CENP-E assessed as ATPase activity
Homo sapiens [10] = species: Homo sapiens
Description: Binding affinity to human CENP-E T183A/K184T mutant assessed as catalytic constant

COLO 205 [11] = assay: Antitumor activity against human COLO 205 cells xenografted in mouse assessed as reduction in tumor volume administered intraperitoneally three doses daily on 2 consecutive weeks; assay type: functional, cell-based; conditions: dose 62.5-125 mg/kg, route ip, time 2.0 weeks
COLO 205 [12] = assay: Effect on cell cycle distribution in human COLO 205 cells xenografted in mouse assessed as increase in ratio of 4n to 2n nuclei measured after 24 hrs of single administration by flow cytometry; assay type: functional, cell-based; conditions: dose <= 125.0 mg/kg
Homo sapiens [13] = species: Homo sapiens; remark: listed apart in the source
Description: Binding affinity to human CENP-E T183A/K184T mutant assessed as Km in presence of ATP

COLO 205 [14] = assay: Induction of morphological change in human COLO 205 cells xenografted in mouse assessed as appearance of mitotic figures in tumor at 125 mg/kg measured after 24 hrs of single administration by H and E staining based analysis; assay type: functional, organism-based
Homo sapiens [15] = species: Homo sapiens; remark: listed apart in the source
Description: Binding affinity to human CENP-E T183A/K184T mutant assessed as Km in presence of microtubule

COLO 205 [16] = assay: Induction of morphological change in human COLO 205 cells xenografted in mouse assessed as appearance of scattered apoptotic bodies in tumor at 125 mg/kg measured after 24 hrs of single administration by H and E staining based analysis; assay type: functional, organism-based
[17] = target: Centromere-associated protein E (Homo sapiens) (UniProt Q02224)
Description: Binding affinity to C-terminal 6-his-tagged CENP-E (2 to 340 residues)(unknown origin) expressed in Escherichia coli BL21(DE3) assessed as compound dissociation by measuring t1/2

Homo sapiens [18] = species: Homo sapiens; assay: Binding affinity to human CENP-E T183A/K184T mutant assessed as ATPase activity
[19] = target: Centromere-associated protein E (Homo sapiens) (UniProt Q02224); assay: Inhibition of CENP-E motor domain ATPase in human HCC1954 cells assessed as increase in Ser10 phosphorylated histone H3 level by Western blot analysis; assay type: cell-based
HCC1954 [20] = assay: Induction of morphological change in human HCC1954 cells expressing GFP-histone 2B assessed as bipolar spindle formation of chromosomes at 0.2 ug/ml measured for 5 days on every 15 mins by PI staining based analysis; assay type: functional, cell-based; conditions: dose 0.2 µg/ml, time 5.0 day
HCC1954 [21] = assay: Induction of apoptosis in human HCC1954 cells assessed as increase in PARP cleavage measured for 145 hrs by Western blot analysis; assay type: functional, cell-based
SK-OV-3 = assay: Induction of morphological change in human SK-OV-3 cells assessed as increase in mitotic cells with bipolar spindle formation of chromosomes at 50 nM measured for 24 to 32 hrs by microscopic analysis; assay type: functional, cell-based; conditions: time 24-32 hrs
[22] = target: Centromere-associated protein E (Homo sapiens) (UniProt Q02224); assay: Inhibition of CENP-E motor domain ATPase in human HCC1954 cells expressing GFP-histone 2B assessed as increase in mitotic index at 0.2 ug/ml measured for 5 days on every 15 mins by PI staining based analysis; assay type: cell-based; conditions: dose 0.2 µg/ml, time 5.0 day
[23] = target: Centromere-associated protein E (Homo sapiens) (UniProt Q02224); assay: Uncompetitive-like binding affinity to C-terminal 6-his-tagged CENP-E (2 to 340 residues)(unknown origin) expressed in Escherichia coli BL21(DE3) in presence of ATP
[24] = target: Centromere-associated protein E (Homo sapiens) (UniProt Q02224); assay: Inhibition of CENP-E motor domain ATPase in human HCC1954 cells assessed as increase in 4n DNA content at 325 nM measured for 144 hrs by flow cytometry; assay type: cell-based
[25] = target: Centromere-associated protein E (Homo sapiens) (UniProt Q02224); assay: Inhibition of CENP-E motor domain ATPase in human HCC1954 cells assessed as increase in cyclin B level by Western blot analysis; assay type: cell-based

Chain of Centromere-associated protein E (Homo sapiens) (Q02224 whole entry, the tested form may be a part): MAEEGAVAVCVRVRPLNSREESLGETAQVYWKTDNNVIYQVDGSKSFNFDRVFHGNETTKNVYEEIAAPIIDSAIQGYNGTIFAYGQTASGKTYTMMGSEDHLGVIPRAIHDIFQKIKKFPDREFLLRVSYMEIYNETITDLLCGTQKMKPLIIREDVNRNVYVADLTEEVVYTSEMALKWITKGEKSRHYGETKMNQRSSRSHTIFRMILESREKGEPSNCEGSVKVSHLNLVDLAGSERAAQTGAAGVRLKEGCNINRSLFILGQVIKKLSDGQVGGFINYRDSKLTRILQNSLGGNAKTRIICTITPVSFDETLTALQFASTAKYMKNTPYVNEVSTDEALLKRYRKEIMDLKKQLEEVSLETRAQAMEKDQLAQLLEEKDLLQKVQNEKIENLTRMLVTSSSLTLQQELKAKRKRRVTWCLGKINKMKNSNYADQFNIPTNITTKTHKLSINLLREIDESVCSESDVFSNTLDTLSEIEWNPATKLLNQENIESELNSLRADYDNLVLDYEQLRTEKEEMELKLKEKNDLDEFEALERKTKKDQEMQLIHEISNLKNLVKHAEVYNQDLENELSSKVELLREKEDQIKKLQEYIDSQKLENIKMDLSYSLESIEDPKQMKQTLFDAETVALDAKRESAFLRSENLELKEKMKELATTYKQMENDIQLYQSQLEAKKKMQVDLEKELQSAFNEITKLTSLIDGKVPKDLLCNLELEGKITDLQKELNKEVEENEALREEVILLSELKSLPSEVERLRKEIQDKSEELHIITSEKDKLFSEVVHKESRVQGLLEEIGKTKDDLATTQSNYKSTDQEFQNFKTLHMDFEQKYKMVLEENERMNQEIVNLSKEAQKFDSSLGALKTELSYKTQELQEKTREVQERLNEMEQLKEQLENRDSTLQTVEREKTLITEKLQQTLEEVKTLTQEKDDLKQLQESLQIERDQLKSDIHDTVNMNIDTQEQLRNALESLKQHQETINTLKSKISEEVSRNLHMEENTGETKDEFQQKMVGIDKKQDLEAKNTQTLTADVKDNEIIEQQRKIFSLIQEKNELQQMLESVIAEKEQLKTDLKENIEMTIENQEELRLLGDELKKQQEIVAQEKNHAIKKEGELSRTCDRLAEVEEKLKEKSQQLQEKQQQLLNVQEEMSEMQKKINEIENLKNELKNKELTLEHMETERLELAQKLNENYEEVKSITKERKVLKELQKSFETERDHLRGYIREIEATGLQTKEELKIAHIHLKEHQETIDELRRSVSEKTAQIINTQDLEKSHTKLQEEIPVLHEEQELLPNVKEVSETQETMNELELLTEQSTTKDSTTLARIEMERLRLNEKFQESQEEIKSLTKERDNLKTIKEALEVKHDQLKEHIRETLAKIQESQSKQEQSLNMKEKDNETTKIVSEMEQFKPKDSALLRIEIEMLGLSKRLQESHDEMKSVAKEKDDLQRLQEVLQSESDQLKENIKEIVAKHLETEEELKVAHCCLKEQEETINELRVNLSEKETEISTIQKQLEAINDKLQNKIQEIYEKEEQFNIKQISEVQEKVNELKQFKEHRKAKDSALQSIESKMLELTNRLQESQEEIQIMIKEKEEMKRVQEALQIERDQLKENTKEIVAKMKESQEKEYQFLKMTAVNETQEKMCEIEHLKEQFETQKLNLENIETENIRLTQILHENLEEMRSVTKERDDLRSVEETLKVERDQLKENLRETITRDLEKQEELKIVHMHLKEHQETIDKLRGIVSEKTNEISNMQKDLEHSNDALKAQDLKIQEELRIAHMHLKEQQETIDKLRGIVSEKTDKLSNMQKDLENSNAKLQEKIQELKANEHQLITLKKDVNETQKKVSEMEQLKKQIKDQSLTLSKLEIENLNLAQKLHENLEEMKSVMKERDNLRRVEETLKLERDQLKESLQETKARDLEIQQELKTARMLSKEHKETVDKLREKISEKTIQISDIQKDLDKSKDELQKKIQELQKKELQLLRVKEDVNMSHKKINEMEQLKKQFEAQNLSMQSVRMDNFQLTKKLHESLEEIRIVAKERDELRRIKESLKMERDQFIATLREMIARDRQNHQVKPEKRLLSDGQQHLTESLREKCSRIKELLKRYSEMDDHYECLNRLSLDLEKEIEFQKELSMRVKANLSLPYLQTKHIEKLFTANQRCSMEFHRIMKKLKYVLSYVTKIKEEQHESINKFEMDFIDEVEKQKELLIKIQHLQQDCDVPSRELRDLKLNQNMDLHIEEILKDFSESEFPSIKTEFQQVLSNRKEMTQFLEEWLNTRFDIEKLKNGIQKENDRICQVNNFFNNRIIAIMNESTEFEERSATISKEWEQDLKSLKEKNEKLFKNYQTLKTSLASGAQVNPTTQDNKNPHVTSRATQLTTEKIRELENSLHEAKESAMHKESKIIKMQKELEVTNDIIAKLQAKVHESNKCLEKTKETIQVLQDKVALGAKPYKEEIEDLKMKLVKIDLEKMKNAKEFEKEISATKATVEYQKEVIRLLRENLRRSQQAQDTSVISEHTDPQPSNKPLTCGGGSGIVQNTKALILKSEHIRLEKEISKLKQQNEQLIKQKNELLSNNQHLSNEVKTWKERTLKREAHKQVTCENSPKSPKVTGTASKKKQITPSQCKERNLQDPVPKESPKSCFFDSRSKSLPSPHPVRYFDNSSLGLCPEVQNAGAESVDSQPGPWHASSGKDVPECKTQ
Chain of Centromere protein E (Canis lupus familiaris) (A0A8P0P634 as listed by the source): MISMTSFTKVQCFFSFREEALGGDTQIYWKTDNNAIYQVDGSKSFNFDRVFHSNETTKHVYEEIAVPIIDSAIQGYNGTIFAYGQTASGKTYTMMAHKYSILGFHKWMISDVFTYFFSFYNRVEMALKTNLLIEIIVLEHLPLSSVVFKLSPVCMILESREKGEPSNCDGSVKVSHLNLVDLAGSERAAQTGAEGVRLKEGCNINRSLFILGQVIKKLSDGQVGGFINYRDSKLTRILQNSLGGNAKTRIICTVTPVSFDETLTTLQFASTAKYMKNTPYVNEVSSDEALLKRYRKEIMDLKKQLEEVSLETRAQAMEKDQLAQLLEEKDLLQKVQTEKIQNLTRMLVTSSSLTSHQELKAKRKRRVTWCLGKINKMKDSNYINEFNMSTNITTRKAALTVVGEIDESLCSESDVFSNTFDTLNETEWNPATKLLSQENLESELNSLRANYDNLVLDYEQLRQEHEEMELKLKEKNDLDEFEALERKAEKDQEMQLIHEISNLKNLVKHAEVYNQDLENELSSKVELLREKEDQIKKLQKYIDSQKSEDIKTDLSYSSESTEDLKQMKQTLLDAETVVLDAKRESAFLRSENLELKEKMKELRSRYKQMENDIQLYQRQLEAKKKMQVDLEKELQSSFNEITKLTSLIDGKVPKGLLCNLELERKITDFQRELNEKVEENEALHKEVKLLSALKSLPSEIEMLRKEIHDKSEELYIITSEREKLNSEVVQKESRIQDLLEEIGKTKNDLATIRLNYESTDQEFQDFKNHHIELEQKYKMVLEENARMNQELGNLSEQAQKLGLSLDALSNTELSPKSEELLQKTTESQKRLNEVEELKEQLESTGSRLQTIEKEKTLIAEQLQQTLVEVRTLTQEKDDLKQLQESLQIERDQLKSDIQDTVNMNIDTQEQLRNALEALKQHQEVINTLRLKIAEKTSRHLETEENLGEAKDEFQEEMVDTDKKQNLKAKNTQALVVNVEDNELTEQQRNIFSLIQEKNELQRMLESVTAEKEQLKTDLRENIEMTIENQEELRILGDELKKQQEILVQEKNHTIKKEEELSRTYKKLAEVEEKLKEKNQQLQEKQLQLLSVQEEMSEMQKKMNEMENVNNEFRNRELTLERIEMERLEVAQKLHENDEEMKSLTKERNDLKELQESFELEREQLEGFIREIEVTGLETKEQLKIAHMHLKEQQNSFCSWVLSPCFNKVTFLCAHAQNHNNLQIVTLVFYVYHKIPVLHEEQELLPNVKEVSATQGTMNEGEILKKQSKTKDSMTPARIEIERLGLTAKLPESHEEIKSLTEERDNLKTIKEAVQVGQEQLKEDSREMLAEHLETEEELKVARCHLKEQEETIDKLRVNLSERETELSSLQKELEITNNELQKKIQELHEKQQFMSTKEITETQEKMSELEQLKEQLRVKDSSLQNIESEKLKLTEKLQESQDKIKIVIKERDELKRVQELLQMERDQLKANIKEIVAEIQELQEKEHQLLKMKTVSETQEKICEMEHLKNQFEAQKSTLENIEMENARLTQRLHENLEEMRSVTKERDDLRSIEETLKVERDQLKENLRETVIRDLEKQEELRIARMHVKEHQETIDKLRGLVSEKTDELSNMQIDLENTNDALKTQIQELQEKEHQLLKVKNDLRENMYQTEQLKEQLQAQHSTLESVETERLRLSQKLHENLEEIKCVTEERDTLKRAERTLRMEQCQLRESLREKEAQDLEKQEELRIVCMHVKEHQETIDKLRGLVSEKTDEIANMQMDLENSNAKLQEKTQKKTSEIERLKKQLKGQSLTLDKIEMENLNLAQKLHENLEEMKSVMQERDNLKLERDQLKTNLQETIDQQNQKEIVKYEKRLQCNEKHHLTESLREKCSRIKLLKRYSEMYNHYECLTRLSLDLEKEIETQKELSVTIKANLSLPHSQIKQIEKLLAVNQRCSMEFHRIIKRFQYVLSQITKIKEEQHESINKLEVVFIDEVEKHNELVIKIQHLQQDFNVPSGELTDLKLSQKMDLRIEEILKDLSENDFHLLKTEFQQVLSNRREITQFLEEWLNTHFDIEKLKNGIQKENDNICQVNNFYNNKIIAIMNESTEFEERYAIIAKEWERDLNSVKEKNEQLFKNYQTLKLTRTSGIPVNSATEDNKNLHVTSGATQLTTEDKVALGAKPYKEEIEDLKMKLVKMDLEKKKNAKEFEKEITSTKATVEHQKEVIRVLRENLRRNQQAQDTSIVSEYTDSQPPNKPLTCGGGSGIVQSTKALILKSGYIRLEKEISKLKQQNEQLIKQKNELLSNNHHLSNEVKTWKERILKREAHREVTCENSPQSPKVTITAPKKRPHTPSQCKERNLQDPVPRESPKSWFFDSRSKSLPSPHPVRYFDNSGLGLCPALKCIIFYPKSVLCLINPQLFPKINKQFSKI

Activity [1]: Active
alphaKi [2]: 8 nM
Compound: CNC(=O)C(Cc1ccc(C(=O)c2ccccc2)cc1)NC(=O)c1ccc(OC(C)C)c(Cl)c1 (stereo unspecified)

Compound: Centromere protein E (Canis lupus familiaris), A0A8P0P634
kcat [3]: 11.1 s⁻¹
Km [4]: 34 µM
Km [5]: 0.38 µM

Compound: Centromere-associated protein E (Mus musculus), Q6RT24
Km [6]: 0.55 µM
kcat [7]: 10.1 s⁻¹
Km [8]: 25 µM

Activity [9]: 0.32 s⁻¹
kcat (Homo sapiens [10]): 12.1 s⁻¹
Km (Homo sapiens [13]): 20 µM
Km (Homo sapiens [15]): 1.81 µM
T1/2 [17]: 10.2 h
Activity (Homo sapiens [18]): 0.06 s⁻¹
Compound: CC(C)Oc1ccc(C(=O)N[C@H](CNC(=O)CN(C)C)Cc2ccc(-c3cn4cccc([C@H](C)O)c4n3)cc2)cc1Cl
Activity (COLO 205 [11]): Dose-Dependent Effect
Activity (COLO 205 [12]): Dose-Dependent Effect
Activity (COLO 205 [14]): Active
Activity (COLO 205 [16]): Active

inhibition [19]: Active
inhibition [22]: Active
alphaKi [23]: 0.25 nM
inhibition [24]: Active
inhibition [25]: Active
Compound: Cc1cccn2cc(-c3ccc(C[C@@H](CCO)NC(=O)c4ccc(OC(C)C)c(C#N)c4)cc3)nc12
Activity (HCC1954 [20]): Active
Activity (HCC1954 [21]): Active
Activity (SK-OV-3): Active
